# In patent US9174968B2, “Pyrimidinone compounds for use in the treatment of diseases or conditions mediated by LP-PLA2” (GLAXO GROUP LIMITED, priority 2010, dated 2015):
# Experiments:
# [1] = tested on: proinflammatory (M1) and anti-inflammatory (M2) markers in macrophages; assay: Experimental autoimmune encephalomyelitis (EAE) model, ex vivo analysis of M1 and M2 markers by realtime PCR; format: in vivo, rats; settings: EAE induced with MBP, splenic macrophages day 13 and CNS infiltrating macrophages
# Protocol: A further study was carried out to study the impact of Lp-PLA2 inhibitors on modulating M1/M2 imbalance. In this study, rats were induced to develop experimental autoimmune encephalomyelitis (EAE) by immunization with myelin basic protein (MBP) antigen and treated with a known Lp-PLA2 inhibitor: 5-((9-Methoxy-4-oxo-6,7-dihydro-4H-pyrimido[6,1-a]isoquinolin-2-yl)oxy)-2-(3-(trifluoromethyl)phenoxy)benzonitrile (See PCT application no. PCT/CN2011/001597) For preventive treatment, compound administration started at day 0 whereas it started at 7 day in therapeutic treatment. Rats were subsequently monitored for symptoms of EAE. Rats were immunized with MBP to develop EAE and symptoms were monitored daily. Plasma Lp-PLA2 activity and LysoPC concentration were determined at different time points through the course of EAE.
# Ex vivo analysis of proinflammatory (M1) and anti-inflammatory (M2) markers in control and compound treated EAE […]. Splenic macrophages were harvested at day 13 post MBP-immunization and assayed for expression of a variety of markers by realtime PCR. CNS infiltrating cells were harvested and macrophages were analyzed for expression of M1 and M2 markers by realtime PCR.
# [2] = molecular target: T1, recombinant human Lp-PLA2 (Homo sapiens, UniProt Q13093); assay: Recombinant human Lp-PLA2 assay (rhLp-PLA2, PED6 assay); format: biochemical; settings: upper limit for pIC50 obtained in this assay is 9.3
# T1 sequence (Q13093 22-441): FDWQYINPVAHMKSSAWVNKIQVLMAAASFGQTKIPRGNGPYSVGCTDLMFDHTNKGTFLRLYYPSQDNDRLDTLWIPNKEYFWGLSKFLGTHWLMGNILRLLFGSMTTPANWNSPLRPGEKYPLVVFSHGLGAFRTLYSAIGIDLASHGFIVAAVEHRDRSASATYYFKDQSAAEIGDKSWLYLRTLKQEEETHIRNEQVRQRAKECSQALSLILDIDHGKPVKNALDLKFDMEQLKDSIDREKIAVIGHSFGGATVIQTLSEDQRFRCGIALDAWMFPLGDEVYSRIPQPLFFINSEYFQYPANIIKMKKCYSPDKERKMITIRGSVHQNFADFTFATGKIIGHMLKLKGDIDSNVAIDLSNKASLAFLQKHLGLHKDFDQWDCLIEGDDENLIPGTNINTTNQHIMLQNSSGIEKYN
# From the text: (1) Recombinant Human Lp-PLA2 Assay (rhLp-PLA2) (Also Referred to as “PED6” Assay)
# N-((6-(2,4-dinitrophenyl)amino)-hexanoyl)-2-(4,4-difluoro-5,7-dimethyl-4-bora-3a,4a-diaza-s-indacene-3-pentanoyl)-1-hexadecanoyl-sn-glycero-3-phosphoethanolamine, triethylammonium salt (PED6) is a commercially available fluorescently-labelled phospholipid, which is commercially available from Molecular Probes. There is a quenching para-nitro phenyl (PNP) group in the sn3 position and a Bodipy fluorescein (FL) group in the sn2 position. Upon cleavage with Lp-PLA2, the Bodipy F1 group is liberated and then may result in an increase in fluorescence.
# The PED6 assay was run as an unquenched 10 μL assay. Compounds source plate was prepared by making 1:3 (by volume) serial dilution of the compounds into pure DMSO on 384-well microplate. […] 5 μL of recombinant human Lp-PLA2 enzyme (2 nM rhLp-PLA2 in assay buffer of 50 mM HEPES, pH7.4, 150 mM NaCl, 1 mM CHAPS) was added to each well of the plate with compounds. Plates were centrifuged for 10 sec at 500 rpm. […] Plates were centrifuged for 10 sec at 500 rpm. Plate was covered to protect from light and incubated for 20 min at room temperature. […] PIC50 data, curve and QC analysis was conducted by using XL fit module in Excel.
# [3] = molecular target: T2, Lp-PLA2 from plasma (pooled human plasma) (Homo sapiens, UniProt Q13093); assay: Lp-PLA2 human plasma assay (Thio-PAF assay); format: biochemical; settings: read-out: pIC50 in the thio-PAF assay (converted)
# T2 construct: from tissue; host or cells: pooled human plasma
# T2 sequence (Q13093 22-441): T1 sequence (Q13093 22-441)
# From the text: (3) Lipoprotein-Associated Phospholipase A2 (Lp-PLA2) Human Plasma Assay (Also Referred to as “Thio-PAF Assay”)
# The human plasma assay utilizes a thioester analog of PAF (phosphatidylcholine), where hydrolysis yields to the formation of a phospholipid containing a free thiol group. The amount of thiol is quantitated continuously by reacting with CPM (7-diethylamino-3-(4′-maleimidylphenyl)-4-methylcoumarin), a maleimide which increases in fluorescence after Michael addition of thiols. This assay may detect the activity of Lp-PLA2 from plasma, as determined by specific inhibition by Lp-PLA2 inhibitors.
# The thio-PAF assay was run as a quenched 15 μL assay. Compounds source plate was prepared by making 1:3 (by volume) serial dilution of the compounds into pure DMSO on 384-well microplate. 0.01 μL of compounds on compound source plate were transferred to 384 well Greiner 784076 (black) low-volume plates by ECHO liquid dispenser. 8 μL pooled human plasma, which was previously aliquoted and frozen, was added. Plates were centrifuged for 10 sec at 500 rpm. After 30 minutes preincubation, 2 μL of substrate (2.5 mM thio-PAF, 3.2 mM NEM (N-ethylmaleimide) [made fresh daily in DMSO], and 32 μM CPM [from a DMSO stock] in assay buffer of 50 mM HEPES, pH7.4, 150 mM NaCl, 1 mM CHAPS was added to 384 well Greiner 784076 (black) low-volume plates by BRAVO liquid handling station. Plates were centrifuged for 10 sec at 500 rpm. Plate was covered to protect from light and incubated for 2 min at room temperature. Reaction was quenched with 5 μL of 5% aqueous trifluoroacetic acid (TFA). Plates were covered to protect from light and incubated for 40 min at room temperature. Plates were read at ex: 380/em: 485 using-Envision microplate reader. PIC50 data, curve and QC analysis was conducted by using XLFit module in Excel.
# All exemplified compounds of the present invention were tested in thio-PAF assay or similar assay as described above.
IC50 [2] [µM],IC50 [3] [µM],Compound,M1 markers (proinflammatory) expression [1],M2 markers (anti-inflammatory) expression [1]
,,"COc1ccc2c(c1)CCn1c-2cc(Oc2ccc(Oc3cccc(C(F)(F)F)c3)c(C#N)c2)nc1=O [5-((9-Methoxy-4-oxo-6,7-dihydro-4H-pyrimido[6,1-a]isoquinolin-2-yl)oxy)-2-(3-(trifluoromethyl)phenoxy)benzonitrile]",decrease,increase
> 10,> 10,"CCc1c[nH]c(CCc2ccc(Oc3cccc(C(F)(F)F)c3)cc2)nc1=O [E37, 5-ethyl-2-(4-(3-(trifluoromethyl)phenoxy)phenethyl)pyrimidin-4(1H)-one]",,
> 10,,"CCc1c[nH]c(CCc2ccc(Oc3ccc(F)cc3)cc2)nc1=O [E46, 5-ethyl-2-(4-(4-fluorophenoxy)phenethyl)pyrimidin-4(1H)-one]",,
> 10,> 10,"COc1ncc(Cc2c[nH]c(OCCc3ccc(Oc4ncccn4)cc3)nc2=O)cn1 [E147, 5-((2-methoxypyrimidin-5-yl)methyl)-2-(4-(pyrimidin-2-yloxy)phenethoxy)pyrimidin-4(1H)-one]",,
> 10,> 10,"CCc1c[nH]c(OCCc2ccc(Oc3c(F)cc(Cl)cc3F)cc2)nc1=O [E180, 2-(4-(4-chloro-2,6-difluorophenoxy)phenethoxy)-5-ethylpyrimidin-4(1H)-one]",,
